Key:
BRD3(1) = BRD3(1) (Homo sapiens (Human), UniProt Q15059); experiment: Bromodomain binding assay, BRD3(1); details: single point, screened at 30 times Kd; lower numbers indicate stronger hits
Description: (§1) T7 phage strains displaying bromodomains were grown in parallel in 24-well blocks in an E. coli host derived from the BL21 strain. E. coli were grown to log-phase and infected with T7 phage from a frozen stock (multiplicity of infection=0.4) and incubated with shaking at 32° C. until lysis (90-150 min). The lysates were centrifuged (5,000×g) and filtered (0.2 μm) to remove cell debris. Streptavidin-coated magnetic beads were treated with biotinylated small molecule or acetylated peptide ligands for 30 min at RT to generate affinity resins for bromodomain assays. The ligated beads were blocked with excess biotin and washed with blocking buffer (SeaBlock (Pierce), 1% BSA, 0.05% Tween 20, 1 mM DTT) to remove unbound ligand and to reduce non-specific phage binding. Binding reactions were assembled by combining bromodomains, ligated affinity beads, and test compounds in 1× binding buffer (16% SeaBlock, 0.32×PBS, 0.02% BSA, 0.04% Tween 20, 0.004% Sodium azide, 7.9 mM DTT). Test compounds were prepared as 1000× stocks in 100% DMSO and subsequently diluted 1:25 in MEG. The compounds were then diluted directly into the assays such that the final concentrations of DMSO and MEG were 0.1% and 2.4%, respectively. All reactions were performed in polypropylene 384-well plates in a final volume of 0.02 ml. The assay plates were incubated at RT with shaking for 1 hr and the affinity beads were washed with wash buffer (1×PBS, 0.05% Tween 20). The beads were then re-suspended in elution buffer (1×PBS, 0.05% Tween 20, 2 μM non-biotinylated affinity ligand) and incubated at RT with shaking for 30 min. The bromodomain concentration in the eluates was measured by quantitative polymerase chain reaction (qPCR).
(§2) An 11-point 3-fold serial dilution of each test compound was prepared in 100% DMSO at 1000× final test concentration. […] Most dissociation constants were determined using a compound top concentration=10,000 nM. If the initial dissociation constant determined was <0.169 nM (the lowest concentration tested), the measurement was repeated with a serial dilution starting at a lower top concentration. […]

BRD2(2) = BRD2(2) (Homo sapiens (Human), UniProt P25440); experiment: Bromodomain binding assay, BRD2(2); details: single point, screened at 30 times Kd; lower numbers indicate stronger hits
BRD2(2), sequence (P25440 344-453): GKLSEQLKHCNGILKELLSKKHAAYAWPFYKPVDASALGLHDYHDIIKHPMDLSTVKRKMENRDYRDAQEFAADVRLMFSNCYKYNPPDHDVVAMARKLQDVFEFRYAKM
Description: as §1, §2

BRD3(2) = BRD3(2) (Homo sapiens (Human), UniProt Q15059); experiment: Bromodomain binding assay, BRD3(2); details: single point, screened at 30 times Kd; lower numbers indicate stronger hits
BRD3(2), sequence (Q15059 306-415): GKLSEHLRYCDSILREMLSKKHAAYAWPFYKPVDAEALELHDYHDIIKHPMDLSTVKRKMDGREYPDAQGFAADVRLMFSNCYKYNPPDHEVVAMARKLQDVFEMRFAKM
Description: as §1, §2

BRDT(2) = BRDT(2) (Homo sapiens (Human), UniProt Q58F21); experiment: Bromodomain binding assay, BRDT(2); details: single point, screened at 30 times Kd; lower numbers indicate stronger hits
Description: as §1, §2

[1] = Skin penetration (Franz cell); format: in vitro ADME; details: epidermis of pig/human skin after 24 hour exposure
Description: A dosing solution was prepared for each test compound at a saturated concentration in an appropriate formulation mixture. The positive control, caffeine (final concentration 10 mg/mL), was prepared in 50:50 transcutol/water. Warm, degassed phosphate buffered saline (PBS) was applied to the receiving chambers of each jacketed Franz cell (1 cm containing a magnetic stirring bar). Pig/Human skin was removed from −80° C. storage and cut to size (˜2 cm^2) using a scalpel. The skin was then allowed to thaw at RT before being placed into warmed PBS for 10 min. Each skin piece was then dried before being placed onto the orifice of the Franz cell, removing any bubbles that occurred. […]
A calibration line was prepared in PBS (5000 ng/mL-0.2 ng/mL). […] All samples were quantified using UPLC-MS/MS (Waters Xevo TQ-S).
The concentration of compound present at each time point was corrected for the addition of fresh buffer. By plotting the concentration of compound vs time, the J flux and T lag could be calculated (values for caffeine should be approximately J Flux: 0.9-1.1 μg/cm/hr, Tlag: 244-257 min, ˜20% of dose present in receiving chamber after 24 hrs, mass balance 70-90%).
Skin extraction samples were corrected for dilution factor and volume of extraction solution. The quantity of dose measured in skin layers and time point samples were used to measure the mass balance of the experiment.

BRD3(1), sequence (Q15059 34-140): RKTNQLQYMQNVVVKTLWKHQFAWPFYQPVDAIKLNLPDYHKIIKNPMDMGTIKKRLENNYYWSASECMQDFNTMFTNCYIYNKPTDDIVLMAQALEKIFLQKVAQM

BRD3(1) % Ctrl (BRD3(1)): 0 % Ctrl
BRD2(2) % Ctrl (BRD2(2)): 0.6 % Ctrl
BRD3(2) % Ctrl (BRD3(2)): 0.05 % Ctrl
BRDT(2) % Ctrl (BRDT(2)): 3.8 % Ctrl
Epidermal concentration [1]: 27 µM
SMILES: Cn1cc(-c2cccc(O)c2Oc2ccccc2)c2cc[nH]c2c1=O [Example 1, 4-(3-hydroxy-2-phenoxyphenyl)-6-methyl-1,6-dihydro-7H-pyrrolo[2,3-c]pyridin-7-one]

From patent US12384777B2 (Tay Therapeutics Limited, priority 2019, dated 2025)
